Test results as given in patent US10729135B2, “Methods of controlling pests using terpendoles” (priority 2017, dated 2020).

Tested on: green peach aphids (Myzus persicae)
Assay: LC50 biological efficacy assay on green peach aphids, aerosolized dilutions on infested radish leaves
Format: in vivo
Conditions: for LC50: concentration for 50% control over 24-48 hours, infested radish leaves, 500 μl aerosolized dilution; for control of green peach aphids (in words): summary of Table 1
Description: Biological efficacy assays utilizing terpendoles were conducted on green peach aphids (Myzus persicae). Specifically, terpendole A, terpendole C, terpendole J, terpendole K, terpendole N, terpendole O and terpendole P were each separately applied in serial dilutions to determine the concentration at which 50% control of green peach aphids occurred over a period of 24-48 hours (“LC50”). Radish leaves infested with green peach aphids were treated, top and bottom, with a total of 500 μl of an aerosolized terpendole dilution. Treated, aphid infested leaves were held in greenhouse conditions and evaluated for efficacy at 24 and 48 h.

## CC(C)=CCc1cccc2[nH]c3c(c12)C[C@@H]1CC[C@@]2(O)[C@@]45O[C@@H]4[C@@H]4O[C@H](C6OC6(C)C)OC(C)(C)[C@H]4O[C@H]5CC[C@]2(C)[C@@]31C (stereo partly drawn) [Terpendole O, terpendole O]
  LC50: 105 ppm
  control of green peach aphids (in words): effectively controlled

## CC(C)=CCc1ccc2c3c([nH]c2c1)[C@@]1(C)[C@@H](CC[C@@]2(O)[C@@]45O[C@@H]4[C@@H]4O[C@H](C6OC6(C)C)OC(C)(C)[C@H]4O[C@H]5CC[C@@]21C)C3 (stereo partly drawn) [Terpendole P, terpendole P]
  LC50: 67 ppm
  control of green peach aphids (in words): effectively controlled

## CC(C)=CCOC(C)(C)[C@H]1O[C@H]2CC[C@@]3(C)[C@@](O)(CC[C@H]4Cc5c([nH]c6ccccc56)[C@@]43C)[C@]23O[C@@H]3[C@@H]1O [Terpendole J, terpendole J]
  LC50: 5,183 ppm
  control of green peach aphids (in words): effectively controlled

## CC1(C)OC1[C@H]1O[C@H]2[C@H]3O[C@@]34[C@H](CC[C@@]3(C)[C@@]4(O)CC[C@H]4Cc5c([nH]c6ccccc56)[C@@]43C)O[C@@H]2C(C)(C)O1 (stereo partly drawn) [Terpendole A, terpendole A]
  LC50: 7 ppm
  control of green peach aphids (in words): effectively controlled

## CC(C)=C[C@@H]1O[C@H]2[C@@H](O[C@@H]3CC[C@]4(C)[C@](O)(CC[C@H](CC5(O)C(=O)Nc6cccc(CC7OC7(C)C)c65)[C@@]4(C)O)[C@@]34O[C@@H]24)C(C)(C)O1 (stereo partly drawn) [Terpendole N, terpendole N]
  LC50: 4 ppm
  control of green peach aphids (in words): effectively controlled

## CC(C)=C[C@H]1O[C@H]2[C@H]3O[C@@]34C(=CC[C@@]3(C)[C@@]4(O)CC[C@H]4Cc5c([nH]c6ccccc56)[C@@]43C)O[C@@H]2C(C)(C)O1 [Terpendole K, terpendole K]
  LC50: 44 ppm
  control of green peach aphids (in words): effectively controlled
